# Test results as given in patent US20240158446A1, “CYCLIC COMPOUND HAVING SELECTIVE INHIBITORY ACTION ON KRAS OVER HRAS AND NRAS” (CHUGAI SEIYAKU KABUSHIKI KAISHA, priority 2021, published 2024).
# Like-named read-outs stand apart in the source and are kept apart here. *1 amine or outer side, *2 acyl side, *3 side chain or, on linkers, in order; H or OH if unused. Where a SMILES comes first, the peptide text is derived from it. Bridges are numbered along the chain shown (N, C = ends). [ ]: non-standard residue; d: D form. The star is where a group is joined. hPhe(3-Cl-4-CF3) = N[C@@H](CCc1ccc(C(F)(F)F)c(Cl)c1)C(=O)O; NPrPhe(4-CF3) = CCCN[C@@H](Cc1ccc(C(F)(F)F)cc1)C(=O)O; X35 = COCCN([C@@H](Cc1ccc(C)cc1)C(=O)[*:2])[*:1]; NEtPhe(4-Me) = CCN[C@@H](Cc1ccc(C)cc1)C(=O)O; NMePhe(4-Me) = CN[C@@H](Cc1ccc(C)cc1)C(=O)O; NMeGly(cPent) = CN[C@H](C(=O)O)C1CCCC1; Hyp = O=C(O)[C@@H]1C[C@@H](O)CN1; NMeD = CN[C@@H](CC(=O)O)C(=O)O; NMeL = CN[C@@H](CC(C)C)C(=O)O; Morpholide = C1CN(*)CCO1; NMeA = CN[C@@H](C)C(=O)O; Ac5c = NC1(C(=O)O)CCCC1; Aze = O=C(O)[C@@H]1CCN1; Abu = CC[C@H](N)C(=O)O; Aib = CC(C)(N)C(=O)O; Sar = CNCC(=O)O
# How the values were obtained:
# [1] = target: GDP-bound NRAS wild-type protein (Homo sapiens, UniProt P01111); experiment: Binding to NRAS by surface plasmon resonance (SPR), Single Cycle Kinetics
# GDP-bound NRAS wild-type protein, sequence (P01111 whole entry): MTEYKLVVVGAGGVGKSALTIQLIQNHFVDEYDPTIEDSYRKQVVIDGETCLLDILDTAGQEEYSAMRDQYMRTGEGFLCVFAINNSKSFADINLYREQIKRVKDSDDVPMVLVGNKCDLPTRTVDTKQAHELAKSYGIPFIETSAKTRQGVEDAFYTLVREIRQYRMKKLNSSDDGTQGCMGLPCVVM
# [2] = target: GDP-bound KRAS wild-type protein (Homo sapiens, UniProt P01116); experiment: Binding to KRAS by surface plasmon resonance (SPR), Single Cycle Kinetics; conditions: GDP-bound KRAS wild-type protein, read-out: KRAS KD
# GDP-bound KRAS wild-type protein, sequence (P01116 whole entry): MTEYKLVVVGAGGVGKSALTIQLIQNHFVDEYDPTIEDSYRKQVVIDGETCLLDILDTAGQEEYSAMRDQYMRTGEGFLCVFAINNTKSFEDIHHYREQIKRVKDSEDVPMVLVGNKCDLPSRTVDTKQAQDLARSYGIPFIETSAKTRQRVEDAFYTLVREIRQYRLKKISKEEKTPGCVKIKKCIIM
# [3] = target: GDP-bound HRAS wild-type protein (Homo sapiens, UniProt P01112); experiment: Binding to HRAS by surface plasmon resonance (SPR), Single Cycle Kinetics
# GDP-bound HRAS wild-type protein, sequence (P01112 whole entry): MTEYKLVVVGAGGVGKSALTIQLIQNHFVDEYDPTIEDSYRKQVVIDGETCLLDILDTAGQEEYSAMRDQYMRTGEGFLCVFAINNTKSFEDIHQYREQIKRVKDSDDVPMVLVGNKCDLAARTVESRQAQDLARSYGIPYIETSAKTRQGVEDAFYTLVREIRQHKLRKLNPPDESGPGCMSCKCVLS
# [4] = SPR, GDP-bound NRAS wild-type protein vs GDP-bound KRAS wild-type protein
# [5] = SPR Single Cycle Kinetics, 1:1 binding model
# [6] = SPR, GDP-bound HRAS wild-type protein vs GDP-bound KRAS wild-type protein
# [7] = SPR, GDP-bound NRAS wild-type protein vs GDP-bound KRAS wild-type protein, KD ratio class
# [8] = SPR, Single Cycle Kinetics, 1:1 binding model
# [9] = SPR, GDP-bound HRAS wild-type protein vs GDP-bound KRAS wild-type protein, KD ratio class
"Kd [2, 5] [nM]",Compound,"NRAS/KRAS (ratio of KD value for NRAS to KD value for KRAS) [1, 4]","HRAS/KRAS (ratio of KD value for HRAS to KD value for KRAS) [3, 6]",also measured
0.14,CC[C@H](C)[C@@H]1NC(=O)[C@H](CC(C)C)N(C)C(=O)C[C@@H](C(=O)N2CCOCC2)N(C)C(=O)[C@H](C2CCCC2)N(C)C(=O)C2(CCCC2)NC(=O)[C@@H]2CCCN2C(=O)[C@H](CCc2ccc(C(F)(F)F)c(Cl)c2)NC(=O)CN(C)C(=O)[C@H](Cc2ccc(C)cc2)N(C)C(=O)[C@@H]2CCN2C(=O)[C@H](C)N(C)C1=O [PP0001] ([NMeL]I[NMeA][Aze][NMePhe(4-Me)][Sar][hPhe(3-Cl-4-CF3)]P[Ac5c][NMeGly(cPent)][NMeD]-Morpholide; lactam N-11),C (A compound having a KD ratio of 0.1 or more and less than 3 is denoted as C),C (A compound having a KD ratio of 0.1 or more and less than 3 is denoted as C),–
0.052,CCCN1C(=O)CN(C)C(=O)CN(C)C(=O)[C@H]([C@@H](C)CC)NC(=O)[C@H](CC(C)C)N(C)C(=O)C[C@@H](C(=O)N2CCOCC2)N(C)C(=O)[C@H](C2CCCC2)N(C)C(=O)C2(CCCC2)NC(=O)[C@@H]2C[C@@H](OCC)CN2C(=O)[C@H](CCc2ccc(C(F)(F)F)c(Cl)c2)NC(=O)CN(C)C(=O)[C@@H]1Cc1ccc(C(F)(F)F)cc1 [PP0233] ([NMeL]I[Sar][Sar][NPrPhe(4-CF3)][Sar][hPhe(3-Cl-4-CF3)][Hyp](Et)[Ac5c][NMeGly(cPent)][NMeD]-Morpholide; lactam N-11),B (a compound having 3 or more and less than 10 is denoted as B),C (A compound having a KD ratio of 0.1 or more and less than 3 is denoted as C),–
1.6,CC[C@H](C)[C@@H]1NC(=O)[C@H](CC(C)C)N(C)C(=O)C[C@@H](C(=O)N2CCOCC2)N(C)C(=O)[C@H](CC(C)C)N(C)C(=O)C2(CCCC2)NC(=O)[C@@H]2CCCN2C(=O)[C@H](CCc2ccc(C(F)(F)F)c(Cl)c2)NC(=O)CN(C)C(=O)[C@H](Cc2ccc(C)cc2)N(CC)C(=O)[C@@H]2CCN2C(=O)[C@H](C)N(C)C1=O [PP0016] ([NMeL]I[NMeA][Aze][NEtPhe(4-Me)][Sar][hPhe(3-Cl-4-CF3)]P[Ac5c][NMeL][NMeD]-Morpholide; lactam N-11),C (A compound having a KD ratio of 0.1 or more and less than 3 is denoted as C),C (A compound having a KD ratio of 0.1 or more and less than 3 is denoted as C),–
0.23,CCCN1C(=O)[C@@H]2CCN2C(=O)[C@H](C)N(C)C(=O)[C@H]([C@@H](C)CC)NC(=O)[C@H](CC(C)C)N(C)C(=O)C[C@@H](C(=O)N2CCOCC2)N(C)C(=O)[C@H](C2CCCC2)N(C)C(=O)C(C)(C)NC(=O)[C@@H]2CCCN2C(=O)[C@H](CCc2ccc(C(F)(F)F)c(Cl)c2)NC(=O)CN(C)C(=O)[C@@H]1Cc1ccc(C(F)(F)F)cc1 [PP0225] ([NMeL]I[NMeA][Aze][NPrPhe(4-CF3)][Sar][hPhe(3-Cl-4-CF3)]P[Aib][NMeGly(cPent)][NMeD]-Morpholide; lactam N-11),C (A compound having a KD ratio of 0.1 or more and less than 3 is denoted as C),C (A compound having a KD ratio of 0.1 or more and less than 3 is denoted as C),–
1.1,CCCN1C(=O)CN(C)C(=O)CN(C)C(=O)[C@H](CC)NC(=O)[C@H](CC(C)C)N(C)C(=O)C[C@@H](C(=O)N2CCOCC2)N(C)C(=O)[C@H](C2CCCC2)N(C)C(=O)C2(CCCC2)NC(=O)[C@@H]2CCCN2C(=O)[C@H](CCc2ccc(C(F)(F)F)c(Cl)c2)NC(=O)CN(C)C(=O)[C@@H]1Cc1ccc(C(F)(F)F)cc1 [PP0248] ([NMeL][Abu][Sar][Sar][NPrPhe(4-CF3)][Sar][hPhe(3-Cl-4-CF3)]P[Ac5c][NMeGly(cPent)][NMeD]-Morpholide; lactam N-11),B (a compound having 3 or more and less than 10 is denoted as B),B (a compound having 3 or more and less than 10 is denoted as B),–
–,CCO[C@@H]1C[C@H]2C(=O)NC3(CCC3)C(=O)N(C)[C@@H](C3CCCC3)C(=O)N(C)[C@H](C(=O)N(C)CCOC)CC(=O)N(C)[C@@H](CC3CC3)C(=O)N[C@@H]([C@@H](C)CC)C(=O)N(C)CC(=O)N(C)[C@H]3C/C=C\CCN(C3=O)[C@@H](Cc3ccc(C(F)(F)F)cc3)C(=O)N(C)CC(=O)N[C@@H](CCc3ccc4sccc4c3)C(=O)N2C1 [PP1328],–,–,"NRAS/KRAS (ratio of KD value for NRAS to KD value for KRAS) [1, 7]: A (a compound having 10 or more and less than 20 is denoted as A); Kd [2, 8]: 0.56 nM; HRAS/KRAS (ratio of KD value for HRAS to KD value for KRAS) [3, 9]: A (a compound having 10 or more and less than 20 is denoted as A)"
–,CCO[C@@H]1C[C@H]2C(=O)NC3(CCC3)C(=O)N(C)[C@@H](C3CCCC3)C(=O)N(C)[C@H](C(=O)N3CCOCC3)CC(=O)N(C)[C@@H](Cc3ccc(F)c(F)c3)C(=O)N[C@@H]([C@@H](C)CC)C(=O)N(C)CC(=O)N(C)[C@H]3CCCCCN(C3=O)[C@@H](Cc3ccc(C(F)(F)F)cc3)C(=O)N(C)CC(=O)N[C@@H](CCc3cc(F)c(C(F)(F)F)c(F)c3)C(=O)N2C1 [PP0928],A (a compound having 10 or more and less than 20 is denoted as A),B (a compound having 3 or more and less than 10 is denoted as B),"Kd ([2]; SPR, Single Cycle Kinetics): 1 nM"
0.099,CCO[C@@H]1C[C@H]2C(=O)NC3(CCC3)C(=O)N(C)[C@@H](C3CCCC3)C(=O)N(C)[C@H](C(=O)N(C)C)CC(=O)N(C)[C@@H](CC3CCCC3)C(=O)N[C@@H]([C@@H](C)CC)C(=O)N(C)CC(=O)N(C)[C@H]3C/C=C\CCN(C3=O)[C@@H](Cc3ccc(C)cc3)C(=O)N(C)CC(=O)N[C@@H](CCc3cc(Cl)c(C(F)(F)F)c(Cl)c3)C(=O)N2C1 [PP2679],–,–,"NRAS/KRAS (ratio of KD value with respect to GDP-bound NRAS wild-type protein to KD value with respect to KRAS) ([1]; SPR KD ratio NRAS/KRAS, class symbols): A (a compound having 10 or more and less than 20 is denoted as A); HRAS/KRAS (ratio of KD value with respect to GDP-bound HRAS wild-type protein to KD value with respect to KRAS) ([3]; SPR KD ratio HRAS/KRAS, class symbols): A (a compound having 10 or more and less than 20 is denoted as A)"
0.15,CC[C@H](C)[C@@H]1NC(=O)[C@H](CC(C)C)N(C)C(=O)C[C@@H](C(=O)N2CCOCC2)N(C)C(=O)[C@H](C2CCCC2)N(C)C(=O)C2(CCCC2)NC(=O)[C@@H]2CCCN2C(=O)[C@H](CCc2ccc(C(F)(F)F)c(Cl)c2)NC(=O)CN(C)C(=O)[C@H](Cc2ccc(C)cc2)N(CCOC)C(=O)[C@@H]2CCN2C(=O)[C@H](C)N(C)C1=O [PP0092] ([NMeL]I[NMeA][Aze][X35][Sar][hPhe(3-Cl-4-CF3)]P[Ac5c][NMeGly(cPent)][NMeD]-Morpholide; lactam N-11),C (A compound having a KD ratio of 0.1 or more and less than 3 is denoted as C),C (A compound having a KD ratio of 0.1 or more and less than 3 is denoted as C),–
0.029,CCO[C@@H]1C[C@H]2C(=O)NC3(CCC3)C(=O)N(C)[C@@H](C3CCCC3)C(=O)N(C)[C@H](C(=O)N3CCOCC3)CC(=O)N(C)[C@@H](CC(C)C)C(=O)N[C@@H]([C@@H](C)CC)C(=O)N(C)CC(=O)N(C)[C@H]3CCCCN(C3=O)[C@@H](Cc3ccc(C(F)(F)F)cc3)C(=O)N(C)CC(=O)N[C@@H](CCc3cc(F)c(C(F)(F)F)c(F)c3)C(=O)N2C1 [PP0578],–,–,"NRAS/KRAS (ratio of KD value with respect to NRAS to KD value with respect to KRAS) [1, 4]: B (a compound having 3 or more and less than 10 is denoted as B); HRAS/KRAS (ratio of KD value with respect to HRAS to KD value with respect to KRAS) [3, 6]: B (a compound having 3 or more and less than 10 is denoted as B)"
–,"CCO[C@@H]1C[C@H]2C(=O)NC3(CCC3)C(=O)N(C)[C@@H](C3CCCC3)C(=O)N(C)[C@H](C(=O)N3CCCC3)CC(=O)N(C)[C@@H](CC)C(=O)N[C@@H]([C@@H](C)CC)C(=O)N(C)CC(=O)N(C)[C@H]3C/C=C\CCN(C3=O)[C@@H](Cc3ccc(C(F)(F)F)cc3)C(=O)N(C)CC(=O)N[C@@H](CCc3cc(F)c(C(F)(F)F)c(F)c3)C(=O)N2C1 [PP1090, (2S,8S,12R,14S,20S,23S,27S,30S,36S,38Z)-20-cyclopentyl-8-[2-[3,5-difluoro-4-(trifluoromethyl)phenyl]ethyl]-12-ethoxy-27-ethyl-4,19,22,26,32,35-hexamethyl-30-[(1S)-1-methylpropyl]-23-(pyrrolidine-1-carbonyl)-2-[[4-(trifluoromethyl)phenyl]methyl]spiro[1,4,7,10,16,19,22,26,29,32,35-undecazatricyclo[34.5.1.0^10,14]dotetracont-38-ene-17,1′-cyclobutane]-3,6,9,15,18,21,25,28,31,34,42-undecone]",AA (a compound having 20 or more is denoted as AA),A (a compound having 10 or more and less than 20 is denoted as A),"Kd ([2]; SPR, Single Cycle Kinetics): 0.086 nM"
–,CCO[C@@H]1C[C@H]2C(=O)NC3(CCC3)C(=O)N(C)[C@@H](C3CCCC3)C(=O)N(C)[C@H](C(=O)N(CC)CC)CC(=O)N(C)[C@@H](CC(C)C)C(=O)N[C@@H]([C@@H](C)CC)C(=O)N(C)CC(=O)N(C)[C@H]3C/C=C\CCN(C3=O)[C@@H](Cc3ccc(C(F)(F)F)cc3)C(=O)N(C)CC(=O)N[C@@H](CCc3cc(F)c(C(F)(F)F)c(F)c3)C(=O)N2C1 [PP1306],–,–,"NRAS/KRAS (ratio of KD value for NRAS to KD value for KRAS) [1, 7]: AA (a compound having 20 or more is denoted as AA); Kd [2, 8]: 0.2 nM; HRAS/KRAS (ratio of KD value for HRAS to KD value for KRAS) [3, 9]: A (a compound having 10 or more and less than 20 is denoted as A)"
